ChEMBL document CHEMBL1145863, “Design and synthesis of dihydrofolate reductase inhibitors encompassing a bridging ester group. Evaluation in a mouse colitis model” (J Med Chem, 2003)

Molecular target: T1, Dihydrofolate reductase (Rattus norvegicus, UniProt Q920D2)
T1 sequence (Q920D2 whole entry): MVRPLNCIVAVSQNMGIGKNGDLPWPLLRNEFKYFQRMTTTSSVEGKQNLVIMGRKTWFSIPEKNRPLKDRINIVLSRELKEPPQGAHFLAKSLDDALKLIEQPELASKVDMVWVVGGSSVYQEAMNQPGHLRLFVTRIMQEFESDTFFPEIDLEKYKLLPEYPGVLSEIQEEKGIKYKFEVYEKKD
Experiment: Inhibition of rat liver Dihydrofolate reductase (rlDHFR)

IC50 [nM] | SMILES
150 | Nc1nc(N)c2cc(COC(=O)c3ccc(C(=O)N[C@H](CCC(=O)O)C(=O)O)cc3)ccc2n1
160 | Nc1nc(N)c2cc(COC(=O)c3ccc(C(=O)N[C@@H](CCCC(=O)O)C(=O)O)cc3)ccc2n1
